Laboratory results from patent US11957703B2, “Modulating Nudix homology domain (NHD) with nicotinamide mononucleotide analogs and derivatives of same” (President and Fellows of Harvard College, priority 2017, dated 2024).
One block for each molecule: values may come before it.

Assays:
PARP1-DBC1 complex = target: T1, PARP1-DBC1 complex (Homo sapiens, UniProt Q8N163); experiment: PARP1-DBC1 dissociation assay (Flag-DBC1 immunoprecipitates incubated with molecules); type: binding
T1 construct: expressed in transfected cells; host or cells: 293T cells stably expressing Flag-DBC1 (retroviral pMSCVpuro-Flag-DBC1)
T1 sequence (Q8N163 whole entry, one chain of several): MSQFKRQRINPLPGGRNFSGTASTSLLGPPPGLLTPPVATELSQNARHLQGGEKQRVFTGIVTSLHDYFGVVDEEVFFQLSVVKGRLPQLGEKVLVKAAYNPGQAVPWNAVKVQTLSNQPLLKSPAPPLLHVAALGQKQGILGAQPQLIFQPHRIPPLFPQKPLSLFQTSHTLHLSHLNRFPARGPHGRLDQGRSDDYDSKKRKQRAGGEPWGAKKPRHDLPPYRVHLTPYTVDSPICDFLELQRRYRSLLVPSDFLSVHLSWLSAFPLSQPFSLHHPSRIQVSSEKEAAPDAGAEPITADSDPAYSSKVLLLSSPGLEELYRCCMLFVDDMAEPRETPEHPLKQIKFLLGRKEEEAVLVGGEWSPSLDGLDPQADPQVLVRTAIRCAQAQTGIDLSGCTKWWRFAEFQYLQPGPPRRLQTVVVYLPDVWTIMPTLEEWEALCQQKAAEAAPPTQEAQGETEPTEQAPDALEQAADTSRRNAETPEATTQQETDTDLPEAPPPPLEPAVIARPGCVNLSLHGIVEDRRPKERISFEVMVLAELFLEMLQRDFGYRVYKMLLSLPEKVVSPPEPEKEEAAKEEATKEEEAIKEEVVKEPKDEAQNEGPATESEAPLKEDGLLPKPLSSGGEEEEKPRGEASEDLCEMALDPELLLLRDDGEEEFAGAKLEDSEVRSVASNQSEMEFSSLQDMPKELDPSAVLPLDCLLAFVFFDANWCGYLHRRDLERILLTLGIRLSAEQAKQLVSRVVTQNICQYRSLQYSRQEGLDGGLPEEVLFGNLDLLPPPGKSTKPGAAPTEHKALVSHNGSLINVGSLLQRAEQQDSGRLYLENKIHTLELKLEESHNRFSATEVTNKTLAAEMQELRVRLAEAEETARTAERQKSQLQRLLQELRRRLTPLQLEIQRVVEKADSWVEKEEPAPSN
Method: (§1) Protein extracts from 293T or mouse liver tissues were lysed in ice-cold buffer (150 mM NaCl, 1 mM EDTA, 1 mM EGTA, 1% Triton X-100, 0.5% NP-40, 10 mM Tris HCl, pH 7.4) supplemented with protease inhibitors cocktail cOmplete tablets (Roche) and phosphatase inhibitor cocktail 2 and 3 (Sigma). Protein concentrations were determined by the Bradford protein assay (Bio-rad). Flag-M2 agarose beads or anti-V5 agarose affinity gel (Sigma) were mixed with the lysate supernatant. Immunoprecipitation was allowed to proceed for 2 hours up to overnight at 4° C. with gentle rotation. After 4 washes with lysis buffer, proteins were either directly boiled in SDS-PAGE sample buffer or eluted from the agarose beads using 3×FLAG peptides (Sigma).
(§2) Cell lysates or Co-IP samples were run on homemade 10% or 4-20% gradient pre-cast SDS-PAGE gels (Bio-Rad) under reducing conditions, and then transferred to a polyvinylidene difluoride (PVDF) membrane (Millipore). Membranes were blocked with 5% non-fat dry milk in TBS-Tween (10 mM Tris HCl, pH 7.5, 150 mM NaCl, and 0.1% Tween-20). Antibodies were used at the following concentrations: anti-SIRT1 (Santa Cruz, SC-15404) at 1:500, anti-DBC1 (Bethyl Labotatories, A300-434A) at 1:1000, anti-PARP1 (Cell Signaling, #9542L) at 1:1000, anti-γH2AX (Abcam, ab2893) at 1:1000, anti-H2AX (Abcam, ab11175) at 1:1000, anti-NMNAT1 (Abcam, ab45548) at 1:1000, anti-GAPDH (Millipore, MAB374) at 1:3000, anti-V5 (Invitrogen, R960-25) at 1:3000, anti-beta-tubulin (Upstate, 05-661) at 1:1000, anti-α-actin (Millipore, MAB1501R) at 1:2000, anti-Flag (Sigma, F7425) at 1:3000, anti-PARG (Abcam, ab16060) at 1:1000, p53 (Calbiochem, OP43) at 1:1000, RAD51 (Calbiochem, PC130) at 1:1000, p21 (Neomarker-Labvision-Thermal Fisher, RB-032-P1) at 1:1000, SIRT6 (Cell signaling, D8D12) at 1:1000, Streptavidin-HRP at 1:1000 (Trevigen #4800-30-06), anti-PAR (Trevigen, #4335-MC-100; Abcam, ab14459) at 1:1000 and anti-PARP2 (Santa Cruz, SC-393310) at 1:200 overnight at 4° C. The antibodies ATM, ATR, BRCA1, Chk1, Chk2, DNA-PKs and XRCC1 were all from the Bethyl Laboratories. Phospho-Chk1, phospho-Chk2 and phosphor-p53 antibodies were from a DNA Damage Antibody Sampler Kit (Cell Signaling #9947). Secondary antibodies were horseradish peroxidase-coupled sheep anti-mouse IgG (GE Healthcare, UK), donkey anti-rabbit IgG (GE Healthcare, UK). Amersham™ ECL and Amersham Select ECL western blotting detection systems (GE Healthcare, UK) were used to develop signals. Quantifications of images from western blot films were performed using ImageJ (National Institutes of Health, Bethesda, MD).
Equal aliquots of 293T cell lysates with over-expressing Flag-DBC1 were immunoprecipitated using Flag-M2 agarose beads as described above. After four brief washes with lysis buffer, the beads aliquots were incubated with the freshly dissolved NAD^+ or other chemicals for 1 hr at 4° C. with gentle rotation then centrifuged (5000 rpm, 5 min). After completely removing supernatant, the beads were boiled in SDS loading buffer, analyzed by SDS-PAGE, and probed with antibodies.

PARP1-DBC1 interaction = PARP1-DBC1 interaction in treated 293T cells (co-immunoprecipitation); type: cell-based, human; settings: for effect on the PARP1-DBC1 interaction in 293T cells: PJ34 or 3-AB (2 mM) for 24 hrs
Method: 293T, MCF-7, DBC1 wild type and knockout MEFs (a gift from Dr. Eduardo N. Chini from Mayo Clinic) were cultured in Dulbecco's modified Eagle's medium (DMEM, Mediatech, Inc., Herndon, VA) supplemented with 10% fetal bovine serum (Gemini Bio-products, Woodland, CA) with the presence of penicillin and streptomycin (Corning, Manassas, VA). Retroviruses expressing wild-type or mutant Flag-DBC1 proteins were produced by transfecting 293T cells with plasmids encoding VSV-G, Gag-Pol, and pMSCVpuro-Flag-DBC1 constructs using Lipofectamine® 2000 according to the manufacturer's instructions. Media was changed the day after transfection, and virus-containing media was harvested between 48 and 72 hours post-transfection and filtered through a […] (Corning, Manassas, VA). The filtered media was incubated with the target cells in the presence of 5 μg/mL polybrene (Sigma) and selection started using puromycin (2 μg/mL) 48 hrs post-infection. Lentivirus for knocking down DBC1 or SIRT1 was produced by transfecting 293T with psPAX2 (Addgene plasmid #12260), pMD2.G (Addgene plasmid #12259) and shRNA constructs using Lipofectamine® 2000. The virus harvest, infection and selection were same as described for retrovirus production. The transfections of siRNA were performed using Lipofectamine® RNAiMAX, according to the manufacturer's instructions.
as §1
(§3) Cell lysates or Co-IP samples were run on homemade 10% or 4-20% gradient pre-cast SDS-PAGE gels (Bio-Rad) under reducing conditions, and then transferred to a polyvinylidene difluoride (PVDF) membrane (Millipore). Membranes were blocked with 5% non-fat dry milk in TBS-Tween (10 mM Tris HCl, pH 7.5, 150 mM NaCl, and 0.1% Tween-20). […] Quantifications of images from western blot films were performed using ImageJ (National Institutes of Health, Bethesda, MD).

cellular NAD^+ levels = experiment: NAD+ quantification in 293T cells; type: cell-based, human; settings: treatment of 293T cells
Method: NAD^+ quantification was conducted with an NAD/NADH Quantification Kit (Biovision, Milpitas, CA) following the manufacturer's instructions and normalized to soluble protein content.

PAR = PAR induced by paraquat in 293T cells (western blot); type: cell-based, human; settings: 3-AB 2 mM, paraquat 0.5 mM
Method: as §2, with “The antibodies ATM, ATR, BRCA1, Chk1, Chk2, DNA-PKs and XRCC1 were all from the Bethyl Laboratories. Phospho-Chk1, phospho-Chk2 and phosphor-p53 antibodies were from a DNA Damage Antibody Sampler Kit (Cell Signaling #9947). Secondary antibodies were horseradish peroxidase-coupled sheep anti-mouse IgG (GE Healthcare, UK), donkey anti-rabbit IgG (GE Healthcare, UK). Amersham™ ECL and Amersham Select ECL western blotting detection systems (GE Healthcare, UK) were used to develop signals.” left out

SIRT1-DBC1 interaction = SIRT1-DBC1 interaction in treated 293T cells; type: cell-based, human; settings: FK866 (5 nM, 24 hrs)
Method: 293T, MCF-7, DBC1 wild type and knockout MEFs (a gift from Dr. Eduardo N. Chini from Mayo Clinic) were cultured in Dulbecco's modified Eagle's medium (DMEM, Mediatech, Inc., Herndon, VA) supplemented with 10% fetal bovine serum (Gemini Bio-products, Woodland, CA) with the presence of penicillin and streptomycin (Corning, Manassas, VA). Retroviruses expressing wild-type or mutant Flag-DBC1 proteins were produced by transfecting 293T cells with plasmids encoding VSV-G, Gag-Pol, and pMSCVpuro-Flag-DBC1 constructs using Lipofectamine® 2000 according to the manufacturer's instructions. […]
Protein extracts from 293T or mouse liver tissues were lysed in ice-cold buffer (150 mM NaCl, 1 mM EDTA, 1 mM EGTA, 1% Triton X-100, 0.5% NP-40, 10 mM Tris HCl, pH 7.4) supplemented with protease inhibitors cocktail cOmplete tablets (Roche) and phosphatase inhibitor cocktail 2 and 3 (Sigma). Protein concentrations were determined by the Bradford protein assay (Bio-rad). […]
as §3, with “(Millipore).” for “(Millipore). Membranes were blocked with 5% non-fat dry milk in TBS-Tween (10 mM Tris HCl, pH 7.5, 150 mM NaCl, and 0.1% Tween-20).”

[1] = system: p53 and RAD51 pulled down with Flag-DBC1; experiment: Interaction of DNA repair proteins with Flag-DBC1 in 293T cells; type: cell-based, human; settings: 0.5 mM, 24 hrs
Method: as §1, §3

DBC1WT = target: T2, DBC1WT (Homo sapiens, UniProt Q8N163); experiment: Biotin-NAD+ binding assay, DBC1 wild type; settings: unlabeled competitor
T2 construct: expressed in transfected cells; host or cells: 293T cells
T2 sequence (Q8N163 whole entry): as the sequence (Q8N163 whole entry, one chain of several) above
Method: Lysates of 293T cells expressing Flag-DBC1 or V5/his-DBC1 were prepared as described above and bound to an anti-Flag high sensitivity M2 coated 96-well plate (Sigma) or His-Select® high sensitivity nickel coated 96-well plate (Sigma) by incubating for 3-4 hrs at 4° C., then washed three times with lysis buffer. Biotin-NAD^+ (Trevigen), or specified molecules were incubated in the plates overnight at 4° C. After washing twice with PBS (pH 7.4) and twice with PBS-T (0.1% Triton X-100), streptavidin-HRP (Trevigen, 1:500) in PBS-T was added to each well and incubated for 1 hr at room temperature. After washing twice with PBS (pH 7.4) and twice with PBS-T, 100 μl of PeroxyGlow™ A and B chemiluminescent substrates (Trevigen) mixture (1:1) was added into each well for 1 min followed by immediate quantification of chemiluminescence on a EnSpire 2300 Multi-label reader (Perkin Elmer). Binding curves were calculated using the “one site, specific binding” formula of GraphPad.

effect on the PARP1-DBC1 complex (PARP1-DBC1 complex; non-hydrolysable NAD^+ analogue, concentration not given): abrogated
Structure (SMILES): NC(=O)c1ccc[n+]([C@@H]2C[C@H](COP(=O)(O)OP(=O)(O)OC[C@H]3O[C@@H](n4cnc5c(N)ncnc54)[C@H](O)[C@@H]3O)[C@@H](O)[C@H]2O)c1 [Carba-NAD, Carbanicotinamide adenine dinucleotide]

effect on the PARP1-DBC1 complex (PARP1-DBC1 complex; 500 μM, 1 hr): no effect
Structure (SMILES): NC(=O)c1cccnc1 [NAM, Nicotinamide]

effect on the PARP1-DBC1 complex (PARP1-DBC1 complex; 200 μM, 1 hr): less effective than NAD^+
Structure (SMILES): Nc1ncnc2nc[nH]c12 [adenine]

effect on the PARP1-DBC1 complex (PARP1-DBC1 complex; 200 μM, 1 hr): no effect
Structure (SMILES): NC(=O)c1ccc[n+]([C@@H]2O[C@H](CO)[C@@H](O)[C@H]2O)c1 [NR, Nicotinamide Riboside]
PARP1-DBC1 complex in 293T cells (PARP1-DBC1 interaction; treatment of 293T cells with NR): dissociates
cellular NAD^+ levels (cellular NAD^+ levels): raises

Structure (SMILES): CN(C)CC(=O)Nc1ccc2[nH]c(=O)c3ccccc3c2c1 [PJ-34]
effect on the PARP1-DBC1 interaction in 293T cells (PARP1-DBC1 interaction): no effect

Structure (SMILES): NC(=O)c1cccc(N)c1 [3-AB, 3-aminobenzamide]
effect on the PARP1-DBC1 complex (PARP1-DBC1 complex; 2 mM, 1 hr): no effect
effect on the PARP1-DBC1 interaction in 293T cells (PARP1-DBC1 interaction): no effect
PAR induced by paraquat (PAR): inhibitory effect

Structure (SMILES): O=C(/C=C/c1cccnc1)NCCCCC1CCN(C(=O)c2ccccc2)CC1 [FK866]
PARP1-DBC1 interaction in HEK293T cells (PARP1-DBC1 interaction; FK866, 24 hrs): increased
SIRT1-DBC1 interaction in cells (SIRT1-DBC1 interaction): slightly diminished

Structure (SMILES): C[n+]1ccc(-c2cc[n+](C)cc2)cc1 [paraquat]
interaction of p53 and RAD51 with Flag-DBC1 [1]: did not change

effect on the PARP1-DBC1 complex (PARP1-DBC1 complex; 200 μM, 1 hr): no effect
Structure (SMILES): Nc1ncnc2c1ncn2[C@@H]1O[C@H](COP(=O)(O)OP(=O)(O)OC[C@H]2OC(O)[C@H](O)[C@@H]2O)[C@@H](O)[C@H]1O (stereo partly drawn) [ADPr, ADP-ribose]

effect on the PARP1-DBC1 complex (PARP1-DBC1 complex; 200 μM, 1 hr): less effective than NAD^+
Structure (SMILES): NC(=O)C1=CN([C@@H]2O[C@H](COP(=O)(O)OP(=O)(O)OC[C@H]3O[C@@H](n4cnc5c(N)ncnc54)[C@H](O)[C@@H]3O)[C@@H](O)[C@H]2O)C=CC1 [NADH]

effect on the PARP1-DBC1 complex (PARP1-DBC1 complex; 200 μM, 1 hr): no effect
Structure (SMILES): Nc1ncnc2c1ncn2[C@@H]1O[C@H](COP(=O)(O)OP(=O)(O)OP(=O)(O)O)[C@@H](O)[C@H]1O [ATP, adenosine triphosphate]

competition of labeled NAD^+ bound to DBC1 (DBC1WT): competed off
Structure (SMILES): NC(=O)c1ccc[n+]([C@@H]2O[C@H](COP(=O)([O-])OP(=O)(O)OC[C@H]3O[C@@H](n4cnc5c(N)ncnc54)[C@H](O)[C@@H]3O)[C@@H](O)[C@H]2O)c1 [unlabeled NAD^+]

effect on the PARP1-DBC1 complex (PARP1-DBC1 complex; 200 μM, 1 hr): no effect
Structure (SMILES): Nc1ncnc2c1ncn2[C@@H]1O[C@H](CO)[C@@H](O)[C@H]1O [adenosine]
